Laboratory results published in patent US20080234262A1 (Wyeth, priority 2007, published 2008).

What was measured:
[1] = target: PI3K (Homo sapiens, UniProt P42336); test: Fluorescence polarization assay for PI3K; type: biochemical; settings: PI3Kα; read-out: PI3Kα IC50;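 also: PI3K kinase reaction on PIP2 with ATP, 30-60 min, product sensed by GST-GRP with red probe in fluorescence polarization (mP), controls without enzyme and at zero time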
[2] = system: breast line MDA468; test: In vitro cell culture growth assay (MTS), MDA468; type: cell-based, human; settings: Homo sapiens, 72 h, MDA468 cells, three days after drug treatment
How it was run: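 Growth measured as percent of same-plate vehicle control by MTS metabolic dye conversion (A490). Breast MDA468 and prostate LNCap cells, plated a day ahead, were exposed to compounds for 3 days.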

[3] = system: prostate line LNCap; test: In vitro cell culture growth assay (MTS), LNCap; type: cell-based, human; settings: Homo sapiens, LNCaP, 72 h, LNCap cells, three days after drug treatment;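 also: viable cell density read by absorbance at 490 nm, growth expressed as percent of vehicle-treated cells on the same plate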

Chain of PI3K (P42336 whole entry): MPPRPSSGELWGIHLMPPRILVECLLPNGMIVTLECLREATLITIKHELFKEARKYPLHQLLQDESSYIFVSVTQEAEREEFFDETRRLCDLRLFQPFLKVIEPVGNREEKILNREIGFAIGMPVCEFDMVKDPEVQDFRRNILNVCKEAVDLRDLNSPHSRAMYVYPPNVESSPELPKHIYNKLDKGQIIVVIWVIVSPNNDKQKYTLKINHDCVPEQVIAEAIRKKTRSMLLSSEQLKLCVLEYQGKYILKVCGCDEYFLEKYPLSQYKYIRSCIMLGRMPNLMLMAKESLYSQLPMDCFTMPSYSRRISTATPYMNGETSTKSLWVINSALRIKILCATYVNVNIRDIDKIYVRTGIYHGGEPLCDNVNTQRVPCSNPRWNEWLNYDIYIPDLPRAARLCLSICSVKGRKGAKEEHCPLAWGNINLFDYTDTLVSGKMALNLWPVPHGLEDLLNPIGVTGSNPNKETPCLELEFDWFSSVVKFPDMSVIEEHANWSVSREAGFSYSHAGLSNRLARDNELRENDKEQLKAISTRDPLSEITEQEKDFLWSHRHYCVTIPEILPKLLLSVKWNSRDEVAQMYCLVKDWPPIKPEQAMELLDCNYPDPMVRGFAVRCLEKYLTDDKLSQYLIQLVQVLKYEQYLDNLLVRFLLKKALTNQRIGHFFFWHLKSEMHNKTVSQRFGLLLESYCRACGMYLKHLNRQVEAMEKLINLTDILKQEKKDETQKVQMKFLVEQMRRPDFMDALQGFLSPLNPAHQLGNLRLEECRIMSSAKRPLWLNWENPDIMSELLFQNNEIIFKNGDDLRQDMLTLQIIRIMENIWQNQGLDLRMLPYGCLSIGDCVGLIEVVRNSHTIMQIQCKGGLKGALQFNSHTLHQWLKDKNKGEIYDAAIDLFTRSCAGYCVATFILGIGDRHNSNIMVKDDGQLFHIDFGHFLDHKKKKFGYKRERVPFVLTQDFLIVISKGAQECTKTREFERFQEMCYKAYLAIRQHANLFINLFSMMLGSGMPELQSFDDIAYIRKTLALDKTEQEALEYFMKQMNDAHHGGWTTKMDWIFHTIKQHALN
Chain of PI3K (P27986 whole entry partner): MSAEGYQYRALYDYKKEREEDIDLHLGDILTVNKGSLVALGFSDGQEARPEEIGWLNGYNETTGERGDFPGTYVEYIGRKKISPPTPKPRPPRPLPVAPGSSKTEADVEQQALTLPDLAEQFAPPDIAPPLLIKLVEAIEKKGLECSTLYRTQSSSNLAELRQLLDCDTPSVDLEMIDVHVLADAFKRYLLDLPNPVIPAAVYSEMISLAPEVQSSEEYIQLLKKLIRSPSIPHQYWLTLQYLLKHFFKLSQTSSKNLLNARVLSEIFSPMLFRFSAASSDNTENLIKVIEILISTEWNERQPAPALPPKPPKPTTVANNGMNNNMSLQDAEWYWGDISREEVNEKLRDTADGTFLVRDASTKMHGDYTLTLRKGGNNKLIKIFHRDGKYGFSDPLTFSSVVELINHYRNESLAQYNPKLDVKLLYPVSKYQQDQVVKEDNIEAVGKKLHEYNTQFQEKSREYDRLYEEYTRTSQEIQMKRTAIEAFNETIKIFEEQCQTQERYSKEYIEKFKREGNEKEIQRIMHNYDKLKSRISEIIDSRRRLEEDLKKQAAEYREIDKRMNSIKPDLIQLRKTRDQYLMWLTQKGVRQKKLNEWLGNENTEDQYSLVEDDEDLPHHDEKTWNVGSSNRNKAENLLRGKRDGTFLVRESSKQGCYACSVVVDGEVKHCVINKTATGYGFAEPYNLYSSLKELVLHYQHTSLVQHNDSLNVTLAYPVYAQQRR

O=C(NO)Nc1ccc(-c2nc(N3CCOCC3)c3cnn(C4CCN(C(=O)c5cccnc5)CC4)c3n2)cc1 [Compound 550, 1-hydroxy-3-(4-{4-morpholin-4-yl-1-[1-(pyridin-3-ylcarbonyl)piperidin-4-yl]-1H-pyrazolo[3,4-d]pyrimidin-6-yl}phenyl)urea]
IC50 [1]: 0.604 µM
IC50 [2]: 7.2 µM
IC50 [3]: 10.1 µM

NNC(=O)Nc1ccc(-c2nc(N3CCOCC3)c3cnn(C4CCN(C(=O)c5cccnc5)CC4)c3n2)cc1 [Compound 551, N-(4-{4-morpholin-4-yl-1-[1-(pyridin-3-ylcarbonyl)piperidin-4-yl]-1H-pyrazolo[3,4-d]pyrimidin-6-yl}phenyl)hydrazinecarboxamide]
IC50 [1]: 0.398 µM
IC50 [2]: 14 µM
IC50 [3]: 10.1 µM

CCNC(=O)Nc1ccc(-c2nc(N3CCOCC3)c3cnn(C4CCN(C(=O)c5cccnc5)CC4)c3n2)cc1 [Compound 552, 1-ethyl-3-(4-{4-morpholin-4-yl-1-[1-(pyridin-3-ylcarbonyl)piperidin-4-yl]-1H-pyrazolo[3,4-d]pyrimidin-6-yl}phenyl)urea]
IC50 [1]: 0.434 µM
IC50 [2]: 0.18 µM
IC50 [3]: 0.06 µM

CONC(=O)Nc1ccc(-c2nc(N3CCOCC3)c3cnn(C4CCN(C(=O)c5cccnc5)CC4)c3n2)cc1 [Compound 553, 1-methoxy-3-(4-{4-morpholin-4-yl-1-[1-(pyridin-3-ylcarbonyl)piperidin-4-yl]-1H-pyrazolo[3,4-d]pyrimidin-6-yl}phenyl)urea]
IC50 [1]: 1.81 µM
IC50 [2]: 3 µM
IC50 [3]: 0.8 µM

NNC(=O)Nc1ccc(-c2nc(N3CCOCC3)c3cnn(C4CCN(Cc5ccccc5)CC4)c3n2)cc1 [Compound 554, N-{4-[1-(1-benzylpiperidin-4-yl)-4-morpholin-4-yl-1H-pyrazolo[3,4-d]pyrimidin-6-yl]phenyl}hydrazinecarboxamide]
IC50 [1]: 0.155 µM
IC50 [2]: 7.5 µM
IC50 [3]: 0.9 µM

O=C(NO)Nc1ccc(-c2nc(N3CCOCC3)c3cnn(C4CCN(Cc5ccccc5)CC4)c3n2)cc1 [Compound 555, 1-{4-[1-(1-benzylpiperidin-4-yl)-4-morpholin-4-yl-1H-pyrazolo[3,4-d]pyrimidin-6-yl]phenyl}-3-hydroxyurea]
IC50 [1]: 0.198 µM
IC50 [2]: 1.1 µM
IC50 [3]: 0.1 µM

C#CCNC(=O)Nc1ccc(-c2nc(N3CCOCC3)c3cnn(C4CCN(Cc5ccccc5)CC4)c3n2)cc1 [Compound 557, 1-{4-[1-(1-benzylpiperidin-4-yl)-4-morpholin-4-yl-1H-pyrazolo[3,4-d]pyrimidin-6-yl]phenyl}-3-prop-2-yn-1-ylurea]
IC50 [1]: 0.173 µM
IC50 [2]: 3.9 µM
IC50 [3]: 0.4 µM

NC(=O)Nc1ccc(-c2nc(N3CCOCC3)c3cnn(C4CCN(Cc5cccnc5)CC4)c3n2)cc1 [Compound 558, 1-(4-{4-morpholin-4-yl-1-[1-(pyridin-3-ylmethyl)piperidin-4-yl]-1H-pyrazolo[3,4-d]pyrimidin-6-yl}phenyl)urea]
IC50 [1]: 0.082 µM
IC50 [2]: 0.2 µM
IC50 [3]: 0.2 µM

O=C(Nc1ccc(-c2nc(N3CCOCC3)c3cnn(C4CCN(Cc5cccnc5)CC4)c3n2)cc1)Nc1cccnc1 [Compound 559, 1-(4-{4-morpholin-4-yl-1-[1-(pyridin-3-ylmethyl)piperidin-4-yl]-1H-pyrazolo[3,4-d]pyrimidin-6-yl}phenyl)-3-pyridin-3-ylurea]
IC50 [1]: 0.02 µM
IC50 [2]: < 0.027 µM
IC50 [3]: < 0.027 µM

O=C(NCCF)Nc1ccc(-c2nc(N3CCOCC3)c3cnn(C4CCN(Cc5cccnc5)CC4)c3n2)cc1 [Compound 560, 1-(2-fluoroethyl)-3-(4-{4-morpholin-4-yl-1-[1-(pyridin-3-ylmethyl)piperidin-4-yl]-1H-pyrazolo[3,4-d]pyrimidin-6-yl}phenyl)urea]
IC50 [1]: 0.338 µM
IC50 [2]: 0.027 µM
IC50 [3]: < 0.027 µM

O=C(NCCO)Nc1ccc(-c2nc(N3CCOCC3)c3cnn(C4CCN(Cc5cccnc5)CC4)c3n2)cc1 [Compound 561, 1-(2-hydroxyethyl)-3-(4-{4-morpholin-4-yl-1-[1-(pyridin-3-ylmethyl)piperidin-4-yl]-1H-pyrazolo[3,4-d]pyrimidin-6-yl}phenyl)urea]
IC50 [1]: 0.162 µM
IC50 [2]: 0.6 µM
IC50 [3]: 0.5 µM
